Legend:
[1] = test system: HAEC, MCF-7, HepG2 and PC-3 cell lines; assay: OCR and ECAR, SeaHorse XF analyzer (data not shown); assay type: cell-based, human; details: absence and/or presence of stressors (hyperglycemia, hypoxia, lactic acid)
Experimental: (§1) (SeaHorse Biosciences Inc, North Billerica, Mass.).
A similar comparison of OCR and ECAR values (data not shown) were determined in numerous other normal and cancer cells lines, including: HAEC (normal human aortic endothelial cells), MCF-7 (breast cancer), HepG2 (liver cancer) and highly metastatic PC-3 (prostate cancer) cell lines. […] Thus, the overall effect of CoQ10 in the treatment of cancer, including cell death, is an downstream effect of its collective influence on proteomic, genomic, metabolomic outcomes in concert with shifting of the cellular bioenergetics from glycolysis to mitochondrial OXPHOS.

[2] = test system: MCF-7; assay: Nexin assay for apoptosis (Annexin-V-PE/7-AAD, flow cytometry); assay type: cell-based; details: 50 μM and 100 μM Q10, 24 hours
Description: (§2) The 7AAD dye will enter into cells with permeabilized cell membranes; primarily those cells that are in late apoptosis. Annexin-V-PE is a dye that binds to Phosphotidyl serine, which is exposed on the outer surface of the plasma membrane in early apoptotic cells. The Nexin reagent thus can be used to differentiate between different populations of apoptotic cells in a flow cytometer.

[3] = test system: SK-MEL28; assay: as above; assay type: cell-based; details: 50 μM and 100 μM Q10, 24 hours
Description: as §2

[4] = test system: PC-3; assay: as above; assay type: cell-based; details: 50 μM and 100 μM Q10, 24 hours, less than in PaCa2
Description: as §2

[5] = test system: SkBr-3 cells; assay: Real-time PCR Apoptosis Array; assay type: cell-based, human
Experimental: RNA was quantified by measuring Optical Density at 260 nm.
Changes in mRNA levels were evaluated using real-time PCR quantification to assess mRNA levels in pre-selected subsets containing […] pathway specific targets.
The assay method of RT-PCR was utilized to provide a measure of mRNA level changes to a total of 84 apoptotic pathway related proteins.

[6] = test system: SKMEL-28 cells; assay: 2-D gel electrophoresis proteomic analysis; assay type: cell-based
Experimental: Protein was isolated from the treated and control flask after 4, 8, 12, and 24 hours. For isolation of proteins, cells were washed three times with 5 mL of ice cold PBS at a pH of 7.4. The cells were then scraped in 3 mL of PBS, pelleted by centrifuge, and re-suspended in a lysis buffer at pH 7.4 (80 mM TRIS-HCl, 1% SDS, with protease and phosphotase inhibitors). Protein concentrations were quantified using the BCA method.
The gels were run in duplicate.
The first experimental set processed and evaluated by Western blot and 2-D gel electrophoresis was the skin cancer cell line SKMEL-28.
A comparative analysis of 943 spots across all twenty-four gels was performed, comparing the control sample against all of the treated samples. The analysis included the identification of spot changes over the time course due to increase, decrease, or post-translational modification.
The analysis found thirty-two statistically significant differential spot changes. […] The characterized peptides were searched against protein databases with Mascot and MSRAT software analysis to identify the protein (Table 2).

[7] = test system: HepG2 (liver cancer) cells; assay: Real-time PCR Angiogenesis Array; assay type: cell-based; details: 100 μM Q10, genes: ANGPTL3, ANGPTL4, CXCL1, CXCL3, CXCL5, ENG, ID3, MMP2, TIMP3
Experimental: The treatment was initiated on 1×10^5 cells per well, following the procedure utilized in the PaCa2 cells (above Examples 9-11). However, the total amount of RNA that was extracted from these samples was lower than expected. Reverse transcription is normally done using 1 μg of total RNA (determined by measurement at 260 nm). The maximum volume that can be used per reverse transcription is 8 μl.

[8] = test system: HDFa cells; assay: OCR and ECAR, SeaHorse XF analyzer; assay type: cell-based, human
Description: as §1
In this experiment, the OCR and extracellular acidification rate (ECAR) in normal cells lines were obtained in the presence and absence of CoQ10 to determine baseline values. It was observed that in its native nutrient environment, the basal OCR rates in normal cells lines are different, and are usually a function of the physiological roles of the cells in the body. […]
Table 97 below describes the ECAR values (mpH/min) in HDFa cells in the presence or absence of CoQ10 under normoxic and hypoxic conditions at 5.5 mM and 22 mM glucose.

[9] = test system: SCC cells; assay: Real-time PCR Diabetes Array; assay type: cell-based
Description: The control cells were untreated cells.

## COC1=C(OC)C(=O)C(C/C=C(\C)CC/C=C(\C)CC/C=C(\C)CC/C=C(\C)CC/C=C(\C)CC/C=C(\C)CC/C=C(\C)CC/C=C(\C)CC/C=C(\C)CCC=C(C)C)=C(C)C1=O [Q10, Coenzyme Q10]
[1]
  OCR and ECAR values: shift in OCR and ECAR values representative of values observed in a normal cells under normal physiological conditions
[2]
  apoptotic population: increase only in early apoptotic population
[3]
  apoptotic population: increase only in early apoptotic population
[4]
  early and late apoptotic population: increase in both early and late apoptotic population
[5]; SkBr3, Q10 24 hr
  mRNAs Bcl2, Bcl2L1, Bcl2L11, Birc6, Bax, Xiap, Hprt1, Apaf1, Abl1, Braf: affected
[5]; apoptosis array
  Bcl-xl mRNA level: significant up-regulation
[6]
  Transaldolase 1 level: decrease of Transaldolase 1
[7]
  genes regulated in the Angiogenesis Arrays: List of genes regulated in the Angiogenesis Arrays
[8]; 50 μM, Hypoxia (5.5 mM) glucose
  ECAR: 5 mpH/min
[8]; 50 μM, Hypoxia (22 mM) glucose
  ECAR: 6 mpH/min
[8]; 50 μM, Normoxia (5.5 mM) glucose
  ECAR: 6 mpH/min
[8]; 50 μM, Normoxia (22 mM) glucose
  ECAR: 5 mpH/min
[8]; 100 μM, Hypoxia (5.5 mM) glucose
  ECAR: 5 mpH/min
[8]; 100 μM, Hypoxia (22 mM) glucose
  ECAR: 8 mpH/min
[8]; 100 μM, Normoxia (5.5 mM) glucose
  ECAR: 6 mpH/min
[8]; 100 μM, Normoxia (22 mM) glucose
  ECAR: 5 mpH/min
[8]; HDFa, high glucose hypoxic conditions
  ECAR: lowering of elevated ECAR to a value that was observed in untreated normoxic conditions
[8]; HDFa, normoxic and hypoxic, 5.5 mM and 22 mM glucose
  ECAR values: minimal influence on ECAR values
[9]; 100 μM Q10, at 6 and 24 hours
  TNFRSF1A Regulation: Down regulated at 6
[9]; 100 μM Q10, at 6 hours
  G6PD Regulation: Down regulated at 6
  ICAM1 Regulation: Down regulated at 6
  INPPL1 Regulation: Down regulated at 6
  NOS3 Regulation: Down regulated at 6
  PIK3CD Regulation: Down regulated at 6
  PPARA Regulation: Down regulated at 6
  PYGL Regulation: Down regulated at 6
  SREBF1 Regulation: Down regulated at 6
  STXBP2 Regulation: Down regulated at 6
  TNF Regulation: Down regulated at 6
  VEGFA Regulation: Down regulated at 6
